Experimental data from patent US9781933B2, “Tetrazolinone compound and use thereof” (Sumitomo Chemical Company, Limited, priority 2013, dated 2017).

Tested on: wheat rust fungus (Puccinia recondita)
Test: Comparative Test Example: wheat rust control at 50 ppm
Type: in vivo
Details: 50 ppm foliar spray; wheat (SHIROGANE); inoculated 5 days after spraying
Procedure: After spraying, the plant was air-dried so as to dry the dilution on the surface of the leaves. […] After the inoculation, the plant was placed at 23° C. for one day under dark and high humidity condition, and cultivated, under illumination at 20° C. for 8 days, and then the area of lesion was investigated.

Compound: Cc1cccc(-n2nnn(C)c2=O)c1COc1ccn(-c2ccc(F)cn2)n1 [compound 40]
- area of lesion relative to that on an untreated plant: ≤ 30%

Compound: Cn1nnn(-c2ccccc2COc2ccn(-c3ccc(F)cc3)n2)c1=O [control compound, 1-(2-{[1-(4-fluorophenyl)-1H-pyrazol-3-yl]oxymethyl}-phenyl)-4-methyl-1,4-dihydrotetrazol-5-one]
- area of lesion relative to that on an untreated plant: ≥ 70%
